Assay results reported in patent US8022180B2, “Method for preventing and treating Alzheimer's disease” (Affiris Forschungs-und Entwicklungs GmbH, priority 2004, dated 2011).
“Also recorded” adds a separate entry of the source. Where a SMILES comes first, the peptide text is derived from it. Where no end group is shown, it is not given here. [ ]: non-standard residue; d: D form. Tle = CC(C)(C)[C@H](N)C(=O)O

Tested on: monoclonal antibody specific for the natural N-terminal Aβ42 sequence DAEFRH
Assay: Inhibition assay: mimotope peptides compete with plate-bound DAEFRH-BSA for recognition by the biotinylated monoclonal antibody (ELISA)
Type: binding, mice
Set-up: key to inhibition (s/m/—): s: strong inhibition; m: moderate inhibition; —: no inhibition
Details: for inhibition of epitope recognition by the monoclonal antibody (in words): FIGS. 2-9; for Inhibitory capacity of mimotopes: summary Tables 1 and 2, in words; for IC50 (inhibition of monoclonal antibody binding to the original epitope): competition ELISA, plate-bound DAEFRH-BSA, peptides 20 min at 37° C.; for inhibition (s/m/—): peptides of the new screening round and 5mers with non natural amino acids
Description: 1.: Generation of Monoclonal Antibodies (mAb) to Detect Aβ42-Derived Peptide Species with Free N-Terminus (Free Aspartic Acid at the N-Terminus)
Mice are vaccinated with the 6mer peptide DAEFRH (SEQ ID NO: 26) (natural N-terminal Aβ42 sequence) linked to the protein bovine serum albumin BSA (to make use of the hapten-carrier-effect), emulsified in CFA (first injection) and IFA (booster injections). DAEFRH (SEQ ID NO: 26)-peptide-specific, antibody-producing hybridomas are detected by ELISA (DAEFRH (SEQ ID NO: 26)-peptide-coated ELISA plates).
(§1) FIGS. 2 and 3 describe the results of inhibition assays performed with mimotope peptides included in and obtained from the 5 libraries (as described). The mimotope peptides compete with the original epitope for recognition by the monoclonal antibody. Original epitope and mimotope peptides contain an additional C at the C-terminus for coupling to a protein carrier (if desired).
(§2) After blocking with PBS/BSA 1% (200 μl/well, 12 h, 4° C.), the plates are washed 3× times with PBS/Tween. Then, biotinylated monoclonal antibody (1:2000, 50 μl/well) and peptides (50 μl/well) at 50, 5, 0.5, 0.05, 0.005, and 0.0005 μg/ml are added for 20 min. at 37° C. The plates are washed 3× times with PBS/Tween and are incubated with horseradish peroxidase (HRP)-labeled streptavidin (100 μl/well, 30 min, RT). The plates are washed 5× times with PBS/Tween and are incubated with ABTS+H2O2 (0.1% w/v, 10 to 45 min) and the reaction is stopped with citric acid followed by photometric evaluation (wavelength 405 nm).
as §1, with “4” for “2”, “5” for “3”, “C-terminus (position 7)” for “C-terminus”
as §2, with “different concentrations” for “50, 5, 0.5, 0.05, 0.005, and 0.0005 μg/ml”
as §1, with “6 to 8” for “2 and 3”, “2” for “5”, “described above).” for “described).”, “C-terminus (position 7 or position 8, respectively)” for “C-terminus”

| Molecule | inhibition of epitope recognition by the monoclonal antibody (in words) | Inhibitory capacity of mimotopes | IC50 (inhibition of monoclonal antibody binding to the original epitope) | inhibition (s/m/—) | concentration at which the peptide is only inhibitory (only inhibitory at a (relatively) high concentration) |
| --- | --- | --- | --- | --- | --- |
| CC[C@H](C)[C@H](NC(=O)[C@H](CCCNC(=N)N)NC(=O)[C@H](CC(C)C)NC(=O)[C@H](CCC(=O)O)NC(=O)[C@H](CCCNC(=N)N)NC(=O)[C@@H](N)CC(=O)O)C(=O)N[C@@H](CS)C(=O)O [Peptide 1235, DRELRI] | block epitope recognition | strong |  |  |  |
| CC[C@H](C)[C@H](NC(=O)[C@H](CCCCN)NC(=O)[C@H](CC(C)C)NC(=O)[C@H](CCC(=O)O)NC(=O)[C@H](CCCCN)NC(=O)[C@@H](N)CC(=O)O)C(=O)N[C@@H](CS)C(=O)O [Peptide 1236, DKELKI] | block epitope recognition | weak |  |  |  |
| CC[C@H](C)[C@H](NC(=O)[C@H](CCCCN)NC(=O)[C@H](CC(C)C)NC(=O)[C@H](CCC(=O)O)NC(=O)[C@H](CCCNC(=N)N)NC(=O)[C@@H](N)CC(=O)O)C(=O)N[C@@H](CS)C(=O)O [Peptide 1237, DRELKI] | block epitope recognition | weak |  |  |  |
| N=C(N)NCCC[C@H](NC(=O)[C@H](Cc1ccccc1)NC(=O)[C@H](CCC(=O)O)NC(=O)[C@H](Cc1ccc(O)cc1)NC(=O)[C@@H](N)CCC(=O)O)C(=O)NCC(=O)N[C@@H](CS)C(=O)O [Peptide 1239, EYEFRG] | block epitope recognition | intermediate | more than 0.5 μg/ml |  |  |
| C[C@H](NC(=O)[C@H](CC(=O)O)NC(=O)[C@H](CCCNC(=N)N)NC(=O)[C@H](Cc1ccccc1)NC(=O)[C@H](CCC(=O)O)NC(=O)[C@H](Cc1c[nH]c2ccccc12)NC(=O)[C@@H](N)CC(=O)O)C(=O)N[C@@H](CS)C(=O)O [Peptide 1241, DWEFRDA] | block epitope recognition | strong |  |  |  |
| CC[C@H](C)[C@H](NC(=O)[C@H](CCCNC(=N)N)NC(=O)[C@H](CC(C)C)NC(=O)[C@H](CCC(=O)O)NC(=O)[C@H](CCCCN)NC(=O)[C@@H](N)CC(=O)O)C(=O)N[C@@H](CS)C(=O)O [Peptide 3001, DKELRI] | block epitope recognition | strong |  |  |  |
| CC[C@H](C)[C@H](NC(=O)[C@H](CCCNC(=N)N)NC(=O)[C@H](CC(C)C)NC(=O)[C@H](CCC(=O)O)NC(=O)[C@H](Cc1c[nH]c2ccccc12)NC(=O)[C@@H](N)CC(=O)O)C(=O)N[C@@H](CS)C(=O)O [Peptide 3002, DWELRI] | block epitope recognition | intermediate |  |  |  |
| C[C@H](NC(=O)[C@@H](N)Cc1ccc(O)cc1)C(=O)N[C@@H](CCC(=O)O)C(=O)N[C@@H](Cc1ccccc1)C(=O)N[C@@H](CCCNC(=N)N)C(=O)NCC(=O)N[C@@H](CS)C(=O)O [Peptide 3005, YAEFRG] | block epitope recognition | intermediate |  |  |  |
| C[C@H](NC(=O)[C@@H](N)CCC(=O)O)C(=O)N[C@@H](CCC(=O)O)C(=O)N[C@@H](Cc1ccccc1)C(=O)N[C@@H](CCCNC(=N)N)C(=O)NCC(=O)N[C@@H](CS)C(=O)O [Peptide 3006, EAEFRG] | block epitope recognition | strong |  |  |  |
| N=C(N)NCCC[C@H](NC(=O)[C@H](Cc1ccccc1)NC(=O)[C@H](CCC(=O)O)NC(=O)[C@H](Cc1ccc(O)cc1)NC(=O)[C@@H](N)CC(=O)O)C(=O)NCC(=O)N[C@@H](CS)C(=O)O [Peptide 3007, DYEFRG] | block epitope recognition | strong |  |  |  |
| CC(C)C[C@H](NC(=O)[C@@H](N)CCC(=O)O)C(=O)N[C@@H](CCC(=O)O)C(=O)N[C@@H](Cc1ccccc1)C(=O)N[C@@H](CCCNC(=N)N)C(=O)NCC(=O)N[C@@H](CS)C(=O)O [Peptide 3008, ELEFRG] |  | weak |  |  |  |
| N=C(N)NCCC[C@H](NC(=O)[C@H](Cc1ccccc1)NC(=O)[C@H](CCC(=O)O)NC(=O)[C@H](Cc1ccccc1)NC(=O)[C@@H](N)CO)C(=O)NCC(=O)N[C@@H](CS)C(=O)O [Peptide 3009, SFEFRG] |  | weak |  |  |  |
| C[C@@H](O)[C@H](NC(=O)[C@H](CCCNC(=N)N)NC(=O)[C@H](Cc1ccccc1)NC(=O)[C@H](CCC(=O)O)NC(=O)[C@H](Cc1c[nH]c2ccccc12)NC(=O)[C@@H](N)CO)C(=O)N[C@@H](CS)C(=O)O [Peptide 4002, SWEFRT] | block epitope recognition | strong | less than 0.4 μg/ml |  |  |
| CCCC[C@H](NC(=O)[C@H](CCC(=O)O)NC(=O)[C@H](CCCCN)NC(=O)[C@@H](N)CC(=O)O)C(=O)N[C@@H](CCCNC(=N)N)C(=O)N[C@@H](CS)C(=O)O [Peptide 4062, DKE(Nle)R] (HELM PEPTIDE1{D.K.E.[Nle].R.C}$$$$V2.0) | block epitope recognition |  |  | m |  |
| CCC[C@H](NC(=O)[C@H](CCC(=O)O)NC(=O)[C@H](CCCCN)NC(=O)[C@@H](N)CC(=O)O)C(=O)N[C@@H](CCCNC(=N)N)C(=O)N[C@@H](CS)C(=O)O [Peptide 4063, DKE(Nva)R] (HELM PEPTIDE1{D.K.E.[Nva].R.C}$$$$V2.0) | block epitope recognition |  |  | m |  |
| N=C(N)NCCC[C@H](NC(=O)[C@H](CC1CCCCC1)NC(=O)[C@H](CCC(=O)O)NC(=O)[C@H](CCCCN)NC(=O)[C@@H](N)CC(=O)O)C(=O)N[C@@H](CS)C(=O)O [Peptide 4064, DKEC(Cha)R] | block epitope recognition |  |  | m |  |
| ATYAYWN [Peptide 4038] | not inhibitory at the concentrations tested |  |  | — |  |
| DAEFRH (not fully specified (C-terminus); listed as Homo sapiens) [Peptide 1737, reference compound] | inhibits recognition by the monoclonal antibody; also recorded: can successfully compete |  |  |  |  |
| DAEFRWP [Peptide 4011] | strongly block epitope recognition |  |  | s |  |
| DIGWRG [Peptide 3011] | not inhibitory at the concentrations tested | none |  |  |  |
| DISFRG [Peptide 3010] | not inhibitory at the concentrations tested | none |  |  |  |
| DKE(tBuGly)R (DKE[Tle]R) [Peptide 4061] | not inhibitory at the concentrations tested |  |  | — |  |
| DNEFRSP [Peptide 4012] | moderately inhibit binding |  |  | s |  |
| GAEFRFT [Peptide 4014] | moderately inhibit binding |  |  | m |  |
| GREFRN [Peptide 4003] | block epitope recognition | weak |  |  | 10 µg/mL |
